In PMC8699473, “An Easily Expandable Multi-Drug LC-MS Assay for the Simultaneous Quantification of 57 Oral Antitumor Drugs in Human Plasma” (Cancers, 2021):

Test: Short-term stability in spiked pooled human plasma (bench-top, 4 °C, 56 °C)

Row | SMILES | Short-time stability (1h, 56°C) Accuracy [%] (validation standard 2xLLOV) | Short-time stability (24h, 4°C, without daylight) Accuracy [%] (validation standard 2xLLOV) | Short-time stability (24h, RT, with daylight) Accuracy [%] (validation standard 2xLLOV) | Short-time stability (24h, RT, without daylight) Accuracy [%] (validation standard 2xLLOV) | Short-time stability (1h, 56°C) Accuracy [%] (validation standard LLOV) | Short-time stability (24h, 4°C, without daylight) Accuracy [%] (validation standard LLOV) | Short-time stability (24h, RT, with daylight) Accuracy [%] (validation standard LLOV) | Short-time stability (24h, RT, without daylight) Accuracy [%] (validation standard LLOV) | Short-time stability (1h, 56°C) Accuracy [%] (validation standard MOV) | Short-time stability (24h, 4°C, without daylight) Accuracy [%] (validation standard MOV) | Short-time stability (24h, RT, with daylight) Accuracy [%] (validation standard MOV) | Short-time stability (24h, RT, without daylight) Accuracy [%] (validation standard MOV) | Short-time stability (1h, 56°C) Accuracy [%] (validation standard ULOV) | Short-time stability (24h, 4°C, without daylight) Accuracy [%] (validation standard ULOV) | Short-time stability (24h, RT, with daylight) Accuracy [%] (validation standard ULOV) | Short-time stability (24h, RT, without daylight) Accuracy [%] (validation standard ULOV)
1 | COC(=O)c1ccc2c(c1)NC(=O)/C2=C(\Nc1ccc(N(C)C(=O)CN2CCN(C)CC2)cc1)c1ccccc1 [Nintedanib] | 48.8 | 103.5 | 102.5 | 105.4 | 56.0 | 96.7 | 99.4 | 96.1 | 51.2 | 100.1 | 104.3 | 103.0 | 43.9 | 88.8 | 105.8 | 102.1
2 | CCCS(=O)(=O)Nc1ccc(F)c(C(=O)c2c[nH]c3ncc(-c4ccc(Cl)cc4)cc23)c1F [Vemurafenib] | 41.6 | 93.0 | 92.7 | 85.9 | 34.3 | 90.0 | 93.0 | 82.9 | 39.7 | 100.4 | 89.3 | 92.1 | 34.6 | 93.8 | 91.3 | 88.2
3 | CS(=O)(=O)c1ccc(C(=O)Nc2ccc(Cl)c(-c3ccccn3)c2)c(Cl)c1 [Vismodegib] | 63.8 | 105.0 | 114.6 | 117.6 | 34.2 | 87.2 | 96.1 | 99.6 | 65.7 | 105.3 | 111.1 | 114.6 | 54.4 | 94.5 | 103.5 | 104.5
